Measurements: PubChem BioAssay (NCI)
Where “and” joins values, the source holds several entries; their conditions need not be identical. Equal values may be shown once.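 A five-concentration, 48-hour dose response in 96-well plates underlies each endpoint, interpolated linearly between surrounding concentrations. The concentration for 50% growth inhibition is given as GI50. TGI: total growth inhibition.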

Key:
Assay in all cases: inhibition of tumour cell growth, NCI panel, 48 h
IGROV1 ovarian = test system: IGROV1 ovarian
HOP-62 NSCLC = test system: HOP-62 NSCLC
HCC-2998 colon = test system: HCC-2998 colon
SK-MEL-5 melanoma = test system: SK-MEL-5 melanoma
U251 CNS = test system: U251 CNS
RPMI-8226 leukemia = test system: RPMI-8226 leukemia
HOP-92 NSCLC = test system: HOP-92 NSCLC
SNB-75 CNS = test system: SNB-75 CNS

Structure (SMILES) | TGI (IGROV1 ovarian) | GI50 (HOP-62 NSCLC) | TGI (HOP-62 NSCLC) | GI50 (HCC-2998 colon) | TGI (HCC-2998 colon) | GI50 (SK-MEL-5 melanoma) | TGI (SK-MEL-5 melanoma) | GI50 (U251 CNS) | TGI (U251 CNS) | GI50 (RPMI-8226 leukemia) | TGI (RPMI-8226 leukemia) | GI50 (HOP-92 NSCLC) | TGI (HOP-92 NSCLC) | GI50 (SNB-75 CNS) | TGI (SNB-75 CNS) | GI50 (IGROV1 ovarian)
COc1cc2c(/C=C3/C(=O)Nc4ccc(O)cc43)c(Cl)n(Cc3cc(OC)c(OC)c(OC)c3)c2cc1C | 5750 nM | 1650 nM | 29400 nM | 3300 nM | > 36100 nM | 1020 nM | 2710 nM | 2490 nM | > 28300 nM | 2120 nM | > 100000 nM | 3180 nM | 21900 nM | 1610 nM | > 59800 nM | 
Cc1c[nH]c(=O)n(Cc2nnc(CCC(=O)c3nc4ccccc4[nH]3)o2)c1=O | > 90400 nM | 967 nM | > 100000 nM | 421 nM | 7140 nM | 330 nM | 67700 nM | 372 nM | > 42500 nM | 340 nM | > 100000 nM | 1440 nM | > 100000 nM | 55.8 nM | 806 nM | 575 nM
OCCN(CCO)c1nc(N2CCCCC2)c2nc(N(CCO)CCO)nc(N3CCCCC3)c2n1 | > 100000 nM |  | > 100000 nM |  | 36400 nM |  | 41800 nM |  |  |  |  |  | 36400 nM |  |  | 
O=c1oc2ccc(Cl)cc2c(=O)n1-c1ccc(F)cc1F | > 100000 nM | 1490 nM | 4840 nM | 2890 nM | 8720 nM | 1110 nM | 2460 nM | 1870 nM | 36700 nM | 994 nM | 4180 nM |  | 176 nM | 1320 nM | 4200 nM | 1740 nM
O=[N+]([O-])c1ccc(N=Nc2c(Cl)cc(O)cc2Cl)cc1 |  | 2170 nM | 5870 nM | 3150 nM | 10800 nM | 1480 nM | 3550 nM | 977 nM | 11200 nM |  |  | 285 nM | 2010 nM | > 100000 nM | > 100000 nM | 
CCOC(=O)c1c2c(n3ccc(NC(=O)CCN4CCCCC4)cc13)C(=O)c1ncccc1C2=O | 2540 nM | 22.9 nM | 1830 nM | 1530 nM | 3240 nM | 541 nM | 1980 nM | 1090 nM | 2470 nM | 1410 nM | 4490 nM | 9630 nM | 24600 nM | 506 nM | 5980 nM | 348 nM
O=C(CCCC(=O)N/N=C/c1cc(Cl)ccc1O)N/N=C\c1cc(Cl)ccc1O | > 100000 nM | 5050 nM | > 100000 nM |  |  | 2500 nM | > 100000 nM | 2310 nM | > 100000 nM | 4670 nM | > 100000 nM |  |  | 8160 nM | > 100000 nM | 4210 nM
O=C1c2ccccc2C(=O)c2c1oc1c2c(=O)[nH]c2ccc(Cl)cc21 | 746 nM | 202 nM | 643 nM | 637 nM | 2550 nM | 305 nM | 1210 nM | 268 nM | 767 nM | 387 nM | 2640 nM | 151 nM | 389 nM | 160 nM | 418 nM | 222 nM
COc1ccc2c(c1)C(=O)c1c-2c(N2CCN(C(=O)CCNCCNCCN)CC2)nc2ccccc12 | 32700 nM | 2930 nM | 7510 nM |  |  | 17600 nM | 36600 nM |  |  | 2930 nM | 9710 nM | 2440 nM | 10600 nM | 27800 nM | 51600 nM | 5890 nM
CN(/N=C/c1ccccc1O)c1ccc2ccccc2n1 | 42500 nM |  | 29900 nM |  |  |  | > 100000 nM |  | 29800 nM |  | > 100000 nM |  | > 100000 nM |  |  | 
O=C1/C(=C/c2ccc(F)cc2)CN(C(=O)C(Cl)Cl)C/C1=C\c1ccc(F)cc1 | 410 nM | 407 nM | 1510 nM | 178 nM | 351 nM | 366 nM | 1010 nM | 106 nM | 335 nM | 34.1 nM | 324 nM | 1310 nM | 3130 nM | 1450 nM | 2930 nM | 188 nM
Cc1nc2ccccc2c(/C=C/c2ccccc2)c1C(=O)/C=C/c1ccc(C(F)(F)F)cc1 | 2020 nM |  |  | 1400 nM | 2900 nM | 1730 nM | 3130 nM | 1400 nM | 2950 nM | 394 nM | 3850 nM |  |  | 1440 nM | 2820 nM | 414 nM
O=C(Nc1cn[nH]c1-c1nc2ccc(CN3CCOCC3)cc2[nH]1)NC1CC1 | 19800 nM and > 10000 nM | 721 nM and 1930 nM | 4010 nM and > 10000 nM | 1760 nM and > 10000 nM | 3810 nM and > 10000 nM | 1340 nM and 8520 nM | 3680 nM and > 10000 nM | 274 nM and 1300 nM | 11200 nM and > 10000 nM | 7050 nM and > 10000 nM | 28300 nM and > 10000 nM | 365 nM and 1060 nM | 2600 nM and 8800 nM | 32.7 nM and 214 nM | 367 nM and 1620 nM | 2750 nM and 2670 nM
C#Cc1cccc(NC(=O)c2cccc(NC(=O)CCl)c2)c1 | 19100 nM | 27800 nM | > 82500 nM | 29800 nM | > 82500 nM | 15100 nM | 28000 nM | 12100 nM | 28400 nM | 17300 nM | 59300 nM | 14700 nM | 34600 nM | 12300 nM | 75500 nM | 5790 nM
O=C(O)CN1C(=O)CN=C(c2ccccn2)c2cc(Cl)ccc21 | > 100000 nM |  | > 100000 nM |  |  |  | > 100000 nM |  | > 100000 nM |  | > 100000 nM |  | > 100000 nM |  | > 100000 nM | 
S=C1SCN(Cc2ccccc2)CN1Cc1ccccc1 | 12200 nM | 55600 nM | > 100000 nM | 21700 nM | 37800 nM | 13600 nM | 28100 nM | 5610 nM | 16400 nM | 119 nM | 415 nM | 2370 nM | 13800 nM | 15400 nM | > 48100 nM | 4390 nM
